In patent publication US6893846B2, “Primers for use in detecting beta-lactamases” (priority 1998, dated 2005):
In brackets after ≈: the same amount, converted by molar mass. Read-outs that look alike come from different tables or passages of the source.

Key:
[1] = system: beta-lactamases in sonic extracts of E. aerogenes; assay: Isoelectric focusing overlay: cefotaxime hydrolysis, inhibitors, induction
[2] = target: beta-lactamases in sonic extracts of E. coli (Escherichia coli, UniProt P62593); assay: Isoelectric focusing overlay: cefotaxime hydrolysis and inhibitors
[3] = system: beta-lactamases in sonic extracts of E. coli; assay: as above
[4] = target: beta-lactamases in sonic extracts of K. pneumoniae (Escherichia coli, UniProt P62593)
[5] = target: beta-lactamases in sonic extracts of K. pneumoniae (Klebsiella pneumoniae, UniProt P0AD64); details: Kpn1, beta-lactamase pI 7.6 (SHV-1)
[6] = target: beta-lactamases in sonic extracts of K. pneumoniae (Klebsiella pneumoniae, UniProt P0AD64, E235K/G234S); details: Kpn2, beta-lactamase pI 8.2 (SHV-5)
[7] = system: beta-lactamases in sonic extracts of K. pneumoniae
[8] = system: K. pneumoniae 225; assay: NCCLS microdilution susceptibility test; assay type: cell-based, Klebsiella pneumoniae; details: Klebsiella pneumoniae, 225
[9] = system: E. aerogenes; assay type: cell-based, Enterobacter aerogenes
Procedure: Antibiotic susceptibilities were determined by standard disk-diffusion (NCCLS Standard M2-A6) and agar-dilution (NCCLS Standard M7-A4) procedures. Disks were obtained from Becton Dickinson Microbiology Systems (Cockeysville, Md.). […] Throughout this study, results were interpreted using NCCLS criteria for disk diffusion (NCCLS M2-A6) and broth dilution (NCCLS M7-A4).

[10] = target: single beta-lactamase in P. mirabilis cell extracts (Escherichia coli, UniProt P62593, E102K/R162S); assay: Spectrophotometric hydrolysis assay on crude beta-lactamase extracts; details: P. mirabilis Pit 85 extract, beta-lactamase pI 5.6; 100 μM substrate
[11] = target: single beta-lactamase in E. coli cell extracts (Escherichia coli, UniProt P62593, E102K/R162S); assay: as above; details: E. coli Pit 64 extract, beta-lactamase pI 5.6; 100 μM substrate
[12] = system: K. pneumoniae; assay: Agar dilution MIC, South African isolates; assay type: cell-based, Klebsiella pneumoniae; details: tzp with tazobactam 4 μg/ml
Description: (§1) The strains were provided in response to a request for all strains of Enterobacteriaceae, lacking inducible beta-lactamases, that were intermediate or resistant to cefotaxime or ceftazidime. […]

[13] = system: P. mirabilis; assay: Agar dilution MIC, South African isolates; assay type: cell-based, Proteus mirabilis; details: 4 strains, tzp with tazobactam 4 μg/ml
Description: During a period of three months in 1993, […] strains of Klebsiella pneumoniae (13 blood, 5 burn, 7 wound, 11 tracheal isolates), 4 strains of Proteus mirabilis (all wound isolates) and 4 strains of Escherichia coli (1 blood, 1 burn, 2 wound isolates) were collected from patients at the following medical centers in South Africa: Tygerberg Hospital near Cape Town, King Edward VIII Hospital in Durban, Chris Hani Baragwanath Hospital in Soweto and Pretoria Academic Hospital in Pretoria. The strains were provided in response to a request for all strains of Enterobacteriaceae, lacking inducible beta-lactamases, that were intermediate or resistant to cefotaxime or ceftazidime. […] Therefore accurate prevalence data were not obtained.
Antibiotic susceptibility was determined by standard disk diffusion (NCCLS Standard M2-T4, 1994) and agar dilution (NCCLS Standard M7-T2, 1994) procedures. Standard powders of antimicrobial agents were kindly provided by the following companies: piperacillin and tazobactam (Lederle Laboratories, Wayne, N.J.); cefoxitin and imipenem, (Merck, Rathway, N.J.); cefotaxime, (Hoechst-Roussel Pharmaceuticals Inc., Somerville, N.J.); ceftazidime, (Glaxo Group Research Ltd., Greenford, England); aztreonam and cefepime, (Bristol-Myers Squibb, Princeton, N.J.). Disks for agar diffusion were obtained from Becton Dickinson Microbiology Systems (Cockeysville, Md.). For quality control purposes, the following quality control strains were run simultaneously with the test organisms E. coli ATCC 25922, Pseudomonas aeruginosa ATCC 27853, E. coli ATCC 35218, and Staphylococcus aureus ATCC 29213. Throughout this study, results were interpreted using NCCLS criteria for disk diffusion (NCCLS Standard M2-T4, 1994) and broth dilution (NCCLS Standard M7-T2, 1994).

[14] = system: E. coli C600 transconjugant; details: disk diffusion, Tc = transconjugate E. coli C600
[15] = system: E. aerogenes; assay: Vitek automated susceptibility system; assay type: cell-based, Enterobacter aerogenes; details: the 31 selected E. aerogenes strains
Description: Among all E. aerogenes recovered from clinical specimens during an eighteen month period (September 1993 to March 1995), thirty-one E. aerogenes strains showing a resistance phenotype different from that observed with derepressed mutants normally encountered at the Hunter Holmes McGuire Medical Center, Richmond, Va. were selected for this study. The strains selected were intermediate to ceftriaxone but resistant to ceftazidime when tested with the Vitek automated susceptibility system (bioMerieux Vitek, St. Louis, Mo.). Derepressed mutants previously isolated from this center were usually resistant to both ceftriaxone and ceftazidime.

[16] = system: K. pneumoniae 225; assay: Three-dimensional test (enzymatic inactivation of antibiotics); details: beta-lactamase-mediated hydrolysis by K. pneumoniae 225, lawn E. coli ATCC 25922
[17] = system: E. coli; assay: Agar dilution MIC, South African isolates; assay type: cell-based, Escherichia coli; details: tzp with tazobactam 4 μg/ml
Description: as §1

[18] = system: K. pneumoniae 225; assay: NCCLS disk diffusion assay; assay type: cell-based, Klebsiella pneumoniae; details: disk diffusion, Kleb 225
[19] = system: K. pneumoniae 225; details: test drug disk around amoxicillin-clavulanate disk
[20] = system: E. coli HB101 transformant (17 kb plasmid); details: disk diffusion, Tr (17 kb) = transformant E. coli HB101
[21] = target: single beta-lactamase in K. pneumoniae cell extracts (Escherichia coli, UniProt P62593, E102K/R162S); assay: Spectrophotometric hydrolysis assay on crude beta-lactamase extracts; details: K. pneumoniae Pit 16 extract, beta-lactamase pI 5.6; 100 μM substrate
[22] = target: single beta-lactamase in K. pneumoniae cell extracts (Klebsiella pneumoniae, UniProt P0AD64, E235K/G234S); assay: as above; details: K. pneumoniae Pit 82 extract, beta-lactamase pI 8.2; 100 μM substrate
[23] = target: single beta-lactamase in K. pneumoniae cell extracts (Klebsiella pneumoniae, UniProt P0AD64, G234S); assay: as above; details: K. pneumoniae Pit 100 extract, beta-lactamase pI 7.6; 100 μM substrate
[24] = system: E. coli C600N transconjugants; assay: Susceptibility of transconjugants; assay type: cell-based, Escherichia coli; details: E. coli C600N transconjugants of E. aerogenes 187, 200, 220, 184
Procedure: Antibiotic susceptibilities were determined by standard disk-diffusion (NCCLS Standard M2-A6) and agar-dilution (NCCLS Standard M7-A4) procedures. Disks were obtained from Becton Dickinson Microbiology Systems (Cockeysville, Md.). Disk-diffusion susceptibilities to the following antibiotics were determined, ampicillin; amoxicillin clavulanic acid; aztreonam; cefazolin; cefoxitin; cefuroxime; cefotaxime; ceftriaxone; ceftazidime; cefepime; imipenem; gentamicin; trimethoprim/sulfamethoxazole and ciprofloxacin. […] The following quality control strains were run simultaneously with the test organisms Escherichia coli ATCC 25922, Pseudomonas aeruginosa ATCC 27853, and E. coli ATCC 35218. Throughout this study, results were interpreted using NCCLS criteria for disk diffusion (NCCLS M2-A6) and broth dilution (NCCLS M7-A4).
[…]. The filter paper mating technique with overnight incubation at 37° C. were performed as described previously (Philippon et al., Antimicrob. Agents Chemother., 33:1131-1136 (1989)). Transconjugants were selected on LB (Luria Bertani) agar [Difco (Detroit, Mich.)] plates containing 12 μg per ml nalidixic acid and 20 μg per ml ampicillin.

[25] = system: E. aerogenes; assay: Double-disk potentiation test; assay type: cell-based, Enterobacter aerogenes; details: all the E. aerogenes strains selected; potentiation by clavulanic acid
Description: This test described by Jarlier et al., Rev. Infect. Dis.

[26] = SHV-3 strain (1), Bush group 1 enzyme pI 8.3
[27] = SHV-3 strain (1), Bush group 2be enzyme pI 6.9
[28] = SHV-4 strains (29), Bush group 1 enzyme pI 8.3
[29] = SHV-4 strains (29), Bush group 2be enzyme pI 7.8
[30] = SHV-5 strain (1), Bush group 1 enzyme pI 8.3
[31] = SHV-5 strain (1), Bush group 2Be enzyme pI 8.0
[32] = Ec1, beta-lactamase pI 5.4 (TEM-1)
[33] = Ec2, beta-lactamase pI 5.4 (TEM-1)
[34] = Ec1, beta-lactamase pI 5.6 (TEM-10 or 26)
[35] = Ec2, beta-lactamase pI 7.6 (SHV-2 or 8)
[36] = Kpn2, beta-lactamase pI 5.4 (TEM-1)
[37] = Kpn3, beta-lactamase pI 5.4 (TEM-1)
[38] = Kpn1, beta-lactamase pI 5.6 (TEM-10 or 26)
[39] = Kpn2, beta-lactamase pI 7.6 (SHV-2 or 8)
[40] = Kpn3, beta-lactamase pI 8.0 (AmpC)

Structure (SMILES) | Inhibited by [1, 26] | Inhibited by [1, 27] | Inhibited by [1, 28] | Inhibited by [1, 29] | Inhibited by [1, 30] | Inhibited by [1, 31] | Inhibited by [2, 32] | Inhibited by [2, 33] | Inhibited by [3, 34] | Inhibited by [3, 35] | Inhibited by [4, 36] | Inhibited by [4, 37] | Inhibited by [5] | Inhibited by [6] | Inhibited by [7, 38] | Inhibited by [7, 39] | Inhibited by [7, 40] | MIC [8] [µg/mL] | Zone Size [14] [mm] | Vitek susceptibility result [15] | further results
O=C(O)[C@H]1/C(=C/CO)O[C@@H]2CC(=O)N21 [clavulanate] | no | yes | no | yes | no | yes | Yes | Yes | Yes | Yes | Yes | Yes | Yes | No | Yes | Yes | No |  |  |  | 
CC(C)(O/N=C(\C(=O)N[C@@H]1C(=O)N2C(C(=O)[O-])=C(C[n+]3ccccc3)CS[C@H]12)c1csc(N)n1)C(=O)O [ceftazidime] |  |  |  |  |  |  |  |  |  |  |  |  |  |  |  |  |  | > 64 | 7 | resistant | MIC range ([9]; 1 E. aerogenes strain with Bush group 1 and group 2be (SHV-3) enzymes): 4 µg/mL (≈ 7.32 µM); MIC range ([9]; 1 E. aerogenes strain with Bush group 1 and group 2be (SHV-5) enzymes): 32 µg/mL (≈ 58.5 µM); MIC range ([9]; 29 E. aerogenes strains with Bush group 1 and group 2be (SHV-4) enzymes): 8 to 32 µg/mL; susceptibility by MIC ([9]; all E. aerogenes strains): decreased susceptibility; Hydrolysis [10]: 1 nmol of substrate hydrolyzed/m; Hydrolysis [11]: 2 nmol of substrate hydrolyzed/m; MIC range ([12]; resistance phenotype Kpn1, 8 strains): >128 µg/mL; MIC range ([12]; resistance phenotype Kpn2, 28 strains): 4 to 128 µg/mL; MIC range ([12]; resistance phenotype Kpn3 (K. pneumoniae Pit 68), 1 strain, listed as caz): 4 µg/mL; MIC range [13]: 16 to 64 µg/mL; three dimensional test [16]: positive; MIC range ([17]; resistance phenotype Ec1, 3 strains): >128 µg/mL; MIC range ([17]; resistance phenotype Ec2, 1 strain): 4 µg/mL; Zone Size [18]: 8 mm; clavulanate double-disk potentiation test [19]: positive; Zone Size [20]: 33 mm; Hydrolysis [21]: 3 nmol of substrate hydrolyzed/m; Hydrolysis [22]: 0.2 nmol of substrate hydrolyzed/m; Hydrolysis [23]: 0.1 nmol of substrate hydrolyzed/m; susceptibility after transfer of plasmids encoding SHV beta-lactamase genes [24]: decreased susceptibility
CO/N=C(\C(=O)N[C@@H]1C(=O)N2C(C(=O)O)=C(CSc3nc(=O)c(=O)[nH]n3C)CS[C@H]12)c1csc(N)n1 [ceftriaxone] |  |  |  |  |  |  |  |  |  |  |  |  |  |  |  |  |  | 16 (≈ 28.9 µM) | 12 | intermediate | three dimensional test [16]: positive; Zone Size [18]: 13 mm; clavulanate double-disk potentiation test [19]: positive; Zone Size [20]: 32 mm; double disk test [25]: positive
Cc1onc(-c2ccccc2Cl)c1C(=O)N[C@@H]1C(=O)N2[C@@H]1SC(C)(C)[C@@H]2C(=O)O [cloxacillin] | yes | no | yes | no | yes | no | No | No | No | No | No | No | No | Yes | No | No | Yes |  |  |  | 
